Measured values as given in ChEMBL document CHEMBL5385901, “Drug repurposing of propafenone to discover novel anti-tumor agents by impairing homologous recombination to delay DNA damage recovery of rare disease conjunctival melanoma” (Eur J Med Chem, 2023).
The source made the active and inactive calls. No cut-off for these calls is given here.

Experiments:
[1] = Cytotoxicity against human PIG1 cells at 20 uM incubated for 72 hrs by CCK8 assay relative to control; type: toxicity, cell-based; details: read-out: INH
CM-AS16 [2] = assay: Effect on DNA repair genes in human CM-AS16 cells harboring BRAF mutation at 20 uM by GO enrichment analysis; type: functional, cell-based
CM-AS16 [3] = assay: Effect on DNA integrity checkpoint genes in human CM-AS16 cells harboring BRAF mutation at 20 uM by GO enrichment analysis; type: functional, cell-based
CM-AS16 [4] = assay: Effect on Fanconi anemia pathway in human CM-AS16 cells harboring BRAF mutation at 20 uM by KEGG analysis; type: functional, cell-based
[5] = Cytotoxicity against human CM-AS16 cells assessed as cell growth inhibition incubated for 72 hrs by CCK8 assay; type: functional, cell-based; details: CM-AS16, 72 h
CRMM-2 [6] = assay: Cytotoxicity against human CRMM-2 cells assessed as cell growth inhibition incubated for 72 hrs by CCK8 assay; type: functional, cell-based; details: CRMM-2, 72 h
CRMM-1 [7] = assay: Cytotoxicity against human CRMM-1 cells assessed as cell growth inhibition incubated for 72 hrs by CCK8 assay; type: functional, cell-based; details: CRMM-1, 72 h
[8] = Cytotoxicity against human CM2005.1 cells assessed as cell growth inhibition incubated for 72 hrs by CCK8 assay; type: functional, cell-based; details: CM2005.1, 72 h
[9] = Antiproliferative activity against human CM-AS16 cells assessed as cell growth inhibition incubated for 72 hrs by CCK8 assay; type: functional, cell-based; details: CM-AS16, 72 h
CRMM-2 [10] = assay: Antiproliferative activity against human CRMM-2 cells assessed as cell growth inhibition incubated for 72 hrs by CCK8 assay; type: functional, cell-based; details: CRMM-2, 72 h
[11] = Antiproliferative activity against human CM2005.1 cells assessed as cell growth inhibition incubated for 72 hrs by CCK8 assay; type: functional, cell-based; details: CM2005.1, 72 h
CRMM-1 [12] = assay: Antiproliferative activity against human CRMM-1 cells assessed as cell growth inhibition incubated for 72 hrs by CCK8 assay; type: functional, cell-based; details: CRMM-1, 72 h
[13] = Antiproliferative activity against human HL7702 cells assessed as cell growth inhibition incubated for 72 hrs by CCK8 assay; type: toxicity, cell-based; details: HL7702 (L02) cells
[14] = Antiproliferative activity against human PIG1 cells assessed as cell growth inhibition incubated for 72 hrs by CCK8 assay; type: toxicity, cell-based
[15] = Inhibition of homologous recombination in human CRMM-1 cells at 10 uM incubated for 12 hrs by real-time PCR analysis relative to control; type: functional
CRMM-1 [16] = assay: Induction of apoptosis in human CRMM-1 cells at 0.3 to 3 uM measured after 48 hrs by DAPI/Annexin-V-PE staining based flow cytometry; type: functional, cell-based; details: dose 0.3-3 µM
CRMM-1 [17] = assay: Induction of apoptosis in human CRMM-1 cells at 40 uM measured after 48 hrs by DAPI/Annexin-V-PE staining based flow cytometry relative to control; type: functional
CRMM-1 [18] = assay: Inhibition of cell migration in human CRMM-1 cells assessed as migration rate at 3 uM measured after 72 hrs by wound healing assay (reference value: 70 %); type: functional; set-up: scale not given: the % may be the effect or the level left
CRMM-1 [19] = assay: Induction of apoptosis in human CRMM-1 cells at 0.1 uM measured after 48 hrs by DAPI/Annexin-V-PE staining based flow cytometry; type: functional, cell-based
CRMM-1 [20] = assay: Induction of DNA double strand breaks in human CRMM-1 cells assessed as gamma-H2AX accumulation at 1 uM measured after 24 hrs immunofluorescence based confocal microscopy; type: functional, cell-based
CRMM-2 [21] = assay: Induction of DNA double strand breaks in human CRMM-2 cells assessed as gamma-H2AX accumulation at 1 uM measured after 24 hrs immunofluorescence based confocal microscopy; type: functional, cell-based
CRMM-1 [22] = assay: Induction of DNA double strand breaks in human CRMM-1 cells assessed as gamma-H2AX accumulation upto 10 uM by immunoblot analysis; type: functional, cell-based
CRMM-2 [23] = assay: Induction of DNA double strand breaks in human CRMM-2 cells assessed as gamma-H2AX accumulation upto 10 uM by immunoblot analysis; type: functional, cell-based
CRMM-1 [24] = assay: Induction of DNA damage in human CRMM-1 cells assessed as increase in p53 level upto 10 uM by immunoblot analysis; type: functional, cell-based
CRMM-2 [25] = assay: Induction of DNA damage in human CRMM-2 cells assessed as increase in p53 level upto 10 uM by immunoblot analysis; type: functional, cell-based
CRMM-1 [26] = assay: Induction of DNA damage in human CRMM-1 cells assessed as decrease in MRE11 level measured after 48 hrs by immunoblot analysis; type: functional, cell-based; details: dose <= 10.0 µM
CRMM-1 [27] = assay: Induction of DNA damage in human CRMM-1 cells assessed as decrease in RAD50 level measured after 48 hrs by immunoblot analysis; type: functional, cell-based; details: dose <= 10.0 µM
CRMM-1 [28] = assay: Induction of DNA damage in human CRMM-1 cells assessed as decrease in NBS1 level measured after 48 hrs by immunoblot analysis; type: functional, cell-based; details: dose <= 10.0 µM
CRMM-2 [29] = assay: Induction of DNA damage in human CRMM-2 cells assessed as decrease in MRE11 level measured after 48 hrs by immunoblot analysis; type: functional, cell-based; details: dose <= 10.0 µM
CRMM-2 [30] = assay: Induction of DNA damage in human CRMM-2 cells assessed as decrease in RAD50 level measured after 48 hrs by immunoblot analysis; type: functional, cell-based; details: dose <= 10.0 µM
CRMM-2 [31] = assay: Induction of DNA damage in human CRMM-2 cells assessed as decrease in NBS1 level measured after 48 hrs by immunoblot analysis; type: functional, cell-based; details: dose <= 10.0 µM
CRMM-1 [32] = assay: Induction of DNA damage in human CRMM-1 cells assessed as decrease in […] level upto 10 uM measured after 48 hrs by immunoblot analysis; type: functional, cell-based
CRMM-1 [33] = assay: Induction of DNA damage in human CRMM-1 cells assessed as decrease in RAD51 level upto 10 uM measured after 48 hrs by immunoblot analysis; type: functional, cell-based
CRMM-2 [34] = assay: Induction of DNA damage in human CRMM-2 cells assessed as decrease in […] level upto 10 uM measured after 48 hrs by immunoblot analysis; type: functional, cell-based
CRMM-2 [35] = assay: Induction of DNA damage in human CRMM-2 cells assessed as decrease in RAD51 level upto 10 uM measured after 48 hrs by immunoblot analysis; type: functional, cell-based
[36] = target: T1, Double-strand break repair protein MRE11 (Homo sapiens) (UniProt P49959); assay: Inhibition of his-tagged human MRE11 endonuclease activity using phage X174 circular ssDNA as substrate at 10 to 300 uM incubated for 30 mins by chemiluminescence based analysis; details: dose 10-300 µM
T1 sequence (whole entry): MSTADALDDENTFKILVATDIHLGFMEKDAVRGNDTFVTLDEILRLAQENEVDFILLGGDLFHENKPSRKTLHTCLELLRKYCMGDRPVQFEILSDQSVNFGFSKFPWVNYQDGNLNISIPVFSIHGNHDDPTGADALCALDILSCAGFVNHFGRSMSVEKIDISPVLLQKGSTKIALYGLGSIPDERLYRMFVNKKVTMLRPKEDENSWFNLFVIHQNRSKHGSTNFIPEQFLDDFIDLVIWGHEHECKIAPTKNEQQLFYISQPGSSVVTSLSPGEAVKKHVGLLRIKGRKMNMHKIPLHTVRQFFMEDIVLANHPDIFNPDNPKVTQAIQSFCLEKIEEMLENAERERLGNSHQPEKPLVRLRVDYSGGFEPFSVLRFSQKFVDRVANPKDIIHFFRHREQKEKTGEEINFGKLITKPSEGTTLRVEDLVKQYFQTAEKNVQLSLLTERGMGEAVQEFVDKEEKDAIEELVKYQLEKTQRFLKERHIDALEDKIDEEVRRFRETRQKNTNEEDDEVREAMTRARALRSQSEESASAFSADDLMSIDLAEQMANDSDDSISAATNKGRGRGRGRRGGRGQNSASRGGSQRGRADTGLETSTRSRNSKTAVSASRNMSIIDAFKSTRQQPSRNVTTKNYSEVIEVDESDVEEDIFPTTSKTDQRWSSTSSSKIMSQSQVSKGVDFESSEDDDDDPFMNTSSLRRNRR

CRMM-1 [37] = assay: Induction of apoptosis in human CRMM-1 cells at 3 uM measured after 48 hrs by DAPI/Annexin-V-PE staining based flow cytometry relative to control; type: functional
CRMM-1 [38] = assay: Inhibition of cell migration in human CRMM-1 cells assessed as migration rate at 0.3 uM measured after 72 hrs by wound healing assay (reference value: 70 %); type: functional; set-up: scale not given: the % may be the effect or the level left
[39] = target: T2, Double-strand break repair protein MRE11 (Homo sapiens, UniProt P49959); assay: Binding affinity to his-tagged recombinant human MRE11 assessed as dissociation constant by MST assay
T2 sequence (P49959 whole entry): T1 sequence (whole entry)

CRMM-1 [40] = assay: Inhibition of homologous recombination in human CRMM-1 cells at 10 uM incubated for 12 hrs by real-time PCR analysis; type: functional, cell-based

Question: With `CCCNCC(O)COc1ccccc1C(=O)CCc1ccccc1` (centres undefined) [PROPAFENONE] as the compound, how does the cytotoxicity at 72 h, 20 µM [1] read?
Answer: 26%

Question: And the Activity (CM-AS16 [2])?
Answer: Active

Question: What about the Activity (CM-AS16 [3]) of the same compound?
Answer: Active

Question: And the Activity (CM-AS16 [4])?
Answer: Active

Question: What about the IC50 [5] of the same compound?
Answer: 13.7 µM

Question: What about the IC50 (CRMM-2 [6]) of the same compound?
Answer: 13.4 µM

Question: And the IC50 (CRMM-1 [7])?
Answer: 24.7 µM

Question: And the IC50 [8]?
Answer: 48.3 µM

Question: What about the IC50 [9] of the same compound?
Answer: 13.7 µM

Question: And the IC50 (CRMM-2 [10])?
Answer: 13.4 µM

Question: And the IC50 [11]?
Answer: 48.3 µM

Question: And the IC50 (CRMM-1 [12])?
Answer: 24.7 µM

Question: And the IC50 at 72 h [13]?
Answer: 48.2 µM

Question: What about the IC50 at 72 h [14] of the same compound?
Answer: 56 µM

Question: And the inhibition at 10 µM [15]?
Answer: 56.9%

Question: And the Activity (CRMM-1 [16])?
Answer: Active

Question: What about the Activity (CRMM-1 [17]) of the same compound?
Answer: 80%

Question: What about the Activity (CRMM-1 [18]) of the same compound?
Answer: 58%

Question: Which Activity (CRMM-1 [19]) does the source give for `O=C(CCCc1ccccc1)c1c(OCCCN2CCNCC2)ccc2ccccc12` [listing 1 of 2 here] here?
Answer: inactive

Question: And the Activity (CRMM-1 [16])?
Answer: Active

Question: And the Activity (CRMM-1 [20])?
Answer: Active

Question: What about the Activity (CRMM-2 [21]) of the same compound?
Answer: Active

Question: What about the Activity (CRMM-1 [22]) of the same compound?
Answer: Active

Question: And the Activity (CRMM-2 [23])?
Answer: Active

Question: What about the Activity (CRMM-1 [24]) of the same compound?
Answer: Active

Question: What about the Activity (CRMM-2 [25]) of the same compound?
Answer: Active

Question: What about the Activity (CRMM-1 [26]) of the same compound?
Answer: Dose-Dependent Effect

Question: What about the Activity (CRMM-1 [27]) of the same compound?
Answer: Dose-Dependent Effect

Question: And the Activity (CRMM-1 [28])?
Answer: Dose-Dependent Effect

Question: What about the Activity (CRMM-2 [29]) of the same compound?
Answer: Dose-Dependent Effect

Question: What about the Activity (CRMM-2 [30]) of the same compound?
Answer: Dose-Dependent Effect

Question: And the Activity (CRMM-2 [31])?
Answer: Dose-Dependent Effect

Question: What about the Activity (CRMM-1 [32]) of the same compound?
Answer: Active

Question: What about the Activity (CRMM-1 [33]) of the same compound?
Answer: Active

Question: What about the Activity (CRMM-2 [34]) of the same compound?
Answer: Active

Question: What about the Activity (CRMM-2 [35]) of the same compound?
Answer: Active

Question: What about the inhibition [36] of the same compound?
Answer: Active

Question: For `O=C(CCCc1ccccc1)c1c(OCCCN2CCNCC2)ccc2ccccc12` [listing 2 of 2 here], which IC50 [9] is on record?
Answer: 2.9 µM

Question: What about the IC50 (CRMM-2 [10]) of the same compound?
Answer: 0.7 µM

Question: And the IC50 [11]?
Answer: 1 µM

Question: What about the IC50 (CRMM-1 [12]) of the same compound?
Answer: 1.3 µM

Question: And the IC50 at 72 h [13]?
Answer: 25.6 µM

Question: And the IC50 at 72 h [14]?
Answer: 32.9 µM

Question: And the inhibition at 10 µM [15]?
Answer: 89.5%

Question: And the Activity (CRMM-1 [37])?
Answer: 80%

Question: And the Activity (CRMM-1 [38])?
Answer: 45%

Question: And the Kd [39]?
Answer: 4.3 µM

Question: What does the source list for `CCCNCCCOc1cc2c(cc1C(=O)CCCc1ccccc1)OCCO2`?
Answer: IC50 [9]: 4.4 µM; IC50 (CRMM-2 [10]): 8.8 µM; IC50 [11]: 11.6 µM; IC50 (CRMM-1 [12]): 5.5 µM; IC50 at 72 h [13]: 27.7 µM; IC50 at 72 h [14]: 15.4 µM; inhibition (CRMM-1 [40]): inactive
